Paper PMC6275946 (ACS Omega, 2018)

How the values were obtained:
[1] = target: T1, SHP1 (Src-homology-2-domain containing protein tyrosine phosphatase 1) (Homo sapiens, UniProt P29350); experiment: pNPP phosphatase assay, […] compound, […] h preincubation at […] °C; assay type: biochemical
T1 sequence (P29350 244-515 limits assumed): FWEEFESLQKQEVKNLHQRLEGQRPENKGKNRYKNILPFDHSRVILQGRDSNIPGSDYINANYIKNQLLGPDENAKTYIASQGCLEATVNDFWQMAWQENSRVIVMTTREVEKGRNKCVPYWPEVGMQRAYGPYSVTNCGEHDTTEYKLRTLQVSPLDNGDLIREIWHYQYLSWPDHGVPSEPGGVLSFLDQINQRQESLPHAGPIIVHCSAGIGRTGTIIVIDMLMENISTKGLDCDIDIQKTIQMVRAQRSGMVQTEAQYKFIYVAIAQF

[2] = target: SHP2 (Src-homology-2-domain-containing PTP 2) (Homo sapiens, UniProt Q06124); experiment: LC-MS/MS of covalent cysteine labeling; assay type: biochemical
Sequence of SHP2 (Src-homology-2-domain-containing PTP 2) (Q06124 1-541): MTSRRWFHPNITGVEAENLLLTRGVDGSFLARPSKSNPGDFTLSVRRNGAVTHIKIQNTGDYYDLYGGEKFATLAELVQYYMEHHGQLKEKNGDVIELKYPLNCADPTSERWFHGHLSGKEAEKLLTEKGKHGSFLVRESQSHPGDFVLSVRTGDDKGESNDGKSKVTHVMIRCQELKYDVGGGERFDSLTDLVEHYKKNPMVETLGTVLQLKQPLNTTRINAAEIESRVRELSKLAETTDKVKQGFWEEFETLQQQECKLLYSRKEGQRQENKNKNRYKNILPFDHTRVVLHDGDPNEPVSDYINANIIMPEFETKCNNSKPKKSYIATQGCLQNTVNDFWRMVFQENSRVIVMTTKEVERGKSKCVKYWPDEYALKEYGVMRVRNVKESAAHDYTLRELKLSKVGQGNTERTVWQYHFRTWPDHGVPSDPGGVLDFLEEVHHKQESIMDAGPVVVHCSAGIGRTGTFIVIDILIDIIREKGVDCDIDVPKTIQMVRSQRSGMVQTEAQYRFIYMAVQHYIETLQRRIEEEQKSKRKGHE

- IC50 [2]: ~35 µM
SMILES: C=CC(=O)Nc1ccnc2ccccc12 [compound 12, N-(Quinolin-4-yl)prop-2-enamide]
- pNPP phosphatase assay, 50 μM compound, 4 h preincubation at 37 °C [1]: the only two human PTPs that have cysteine at this position, SHP2 and SHP1, are sensitive to inhibition
